Experimental data reported in US8299103B2, “Compounds which selectively modulate the CB2 receptor” (Boehringer Ingelheim International GmbH, priority 2009, dated 2012).
Like-named read-outs stand apart in the source and are kept apart here.

What was measured:
human CB2R = molecular target: T1, human CB2R (Homo sapiens, UniProt P34972); assay: CB2R mediated modulation of cAMP synthesis; assay type: cell-based
T1 construct: host or cells: CHO cells
Description: B. CB2R Mediated Modulation of cAMP Synthesis:
Compounds of the invention are evaluated for their CB2 agonist or inverse agonistic activity in accordance with the following experimental method.
(§1) CHO cells expressing human CB2R (Euroscreen) are plated at a density of 5000 cells per well in 384 well plates and incubated overnight at 37° C. After removing the media, the cells are treated with test compounds diluted in stimulation buffer containing 1 mM IBMX, 0.25% BSA and 10 uM Forskolin. The assay is incubated for 30 minutes at 37° C. Cells are lysed and the cAMP concentration is measured using DiscoverX-XS cAMP kit, following the manufacturer's protocol. In this setting, agonists will decrease forskolin induced production of cAMP while inverse agonists will further increase forskolin induced production of cAMP. EC50 of agonists are calculated as follows. The maximal amount of cAMP produced by forskolin compared to the level of cAMP inhibited by 1 uM CP55940 is defined as 100%. The EC50 value of each test compound is determined as the concentration at which 50% of the forskolin-stimulated cAMP synthesis is inhibited. Data is analyzed using a four-parameter logistic model. (Model 205 of XLfit 4.0).

human CB1R = molecular target: T2, human CB1R (Homo sapiens, UniProt P21554); assay: CB1R mediated modulation of cAMP synthesis; assay type: cell-based
T2 construct: host or cells: CHO cells
T2 sequence (P21554 whole entry): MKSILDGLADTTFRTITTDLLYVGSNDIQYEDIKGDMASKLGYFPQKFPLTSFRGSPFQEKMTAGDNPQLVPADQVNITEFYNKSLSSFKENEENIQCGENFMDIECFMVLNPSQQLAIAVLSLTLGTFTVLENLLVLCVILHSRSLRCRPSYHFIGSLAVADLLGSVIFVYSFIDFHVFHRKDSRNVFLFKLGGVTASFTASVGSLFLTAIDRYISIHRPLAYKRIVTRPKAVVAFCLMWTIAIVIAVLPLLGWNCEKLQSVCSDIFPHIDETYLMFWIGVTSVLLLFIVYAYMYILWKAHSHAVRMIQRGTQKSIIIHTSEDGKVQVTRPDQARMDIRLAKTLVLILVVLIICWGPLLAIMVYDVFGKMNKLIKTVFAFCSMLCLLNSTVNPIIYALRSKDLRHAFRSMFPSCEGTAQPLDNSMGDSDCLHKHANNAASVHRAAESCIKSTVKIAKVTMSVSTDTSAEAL
Description: C. CB1R Mediated Modulation of cAMP Synthesis:
Compounds of the invention are evaluated for their CB1 agonist or inverse agonistic activity in accordance with the following experimental method.
as §1, with “CB1R” for “CB2R”

[1] = CHO cells expressing human CB2R, inhibition of forskolin-stimulated cAMP synthesis, read-out: CB2 EC50
[2] = CHO cells expressing human CB1R, inhibition of forskolin-stimulated cAMP synthesis, read-out: CB1 EC50

T1 sequence (P34972 whole entry): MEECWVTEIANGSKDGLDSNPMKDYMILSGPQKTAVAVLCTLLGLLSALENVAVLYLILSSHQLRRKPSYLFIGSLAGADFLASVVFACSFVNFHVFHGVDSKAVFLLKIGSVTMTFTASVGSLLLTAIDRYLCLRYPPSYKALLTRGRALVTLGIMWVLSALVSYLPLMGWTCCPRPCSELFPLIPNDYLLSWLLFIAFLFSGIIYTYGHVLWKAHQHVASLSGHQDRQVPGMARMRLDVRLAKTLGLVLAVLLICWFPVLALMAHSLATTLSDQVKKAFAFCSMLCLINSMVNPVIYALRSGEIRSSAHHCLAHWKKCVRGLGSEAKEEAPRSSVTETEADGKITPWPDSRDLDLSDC

Structure (SMILES) | EC50 (human CB2R; [1]) [nM] | EC50 (human CB1R; [2]) [µM] | EC50 (human CB2R) [nM] | EC50 (human CB1R) [µM] | also measured
COCC(C)(C)c1cc(NC(=O)C(C)(C)NC2CCOCC2)on1 | 313 | > 20 | – | – | –
CN(C1CCOCC1)C(C)(C)C(=O)Nc1cc(C(C)(C)CO)no1 | – | – | 56 | > 50 | –
CC(C)(CO)c1cc(NC(=O)C(C)(C)N2CCCCC2)on1 | – | – | 28 | 22 | –
CC(C)N(C)C(C)(C)C(=O)Nc1cc(C(C)(C)CO)no1 | 244 | > 50 | – | – | –
CC(C)(NC1CCN(S(C)(=O)=O)CC1)C(=O)Nc1cc(C(C)(C)CO)no1 | 302 | > 50 | – | – | –
COCC(C)(C)c1cc(NC(=O)C(C)(C)NCC2CCOCC2)no1 | 132 | > 20 | – | – | –
COCC(C)(C)c1cc(NC(=O)C(C)(C)NC2CCOCC2)no1 | 337 | > 20 | – | – | –
COCCOCC(C)(C)c1cc(NC(=O)C(C)(C)N(C)C2CCOCC2)on1 | 246 | > 50 | – | – | –
C[C@H](O)C(C)(C)c1cc(NC(=O)C(C)(C)N(C)C2CCOCC2)on1 | – | – | 28 | 44.7 | –
CN(C1CCOCC1)C(C)(C)C(=O)Nc1cc(C2(CO)CCCC2)no1 | – | – | 21 | 21.5 | –
CN(C1CCOCC1)C(C)(C)C(=O)Nc1cc(C2(CO)CCC2)no1 | – | – | 66 | > 50 | –
COCCOC(C)(C)c1cc(NC(=O)C(C)(C)N(C)C2CCOCC2)on1 | – | – | 93 | > 50 | –
CN(CC1CCOCC1)C(C)(C)C(=O)Nc1cc(C2(O)CC2)no1 | – | – | 13 | > 50 | –
CN(CC1CCOCC1)C(C)(C)C(=O)Nc1nnc(C(C)(C)CO)s1 | 11 | > 50 | – | – | –
Cc1ncc(C(C)(C)c2cc(NC(=O)C(C)(C)N(C)C3CCOCC3)on2)o1 | – | – | 15 | 20.8 | –
CN(C1CCOCC1)C(C)(C)C(=O)Nc1cc(C(C)(C)C2CCOCC2)no1 | – | – | 44 | > 50 | –
CC(C)(NCCCC(F)(F)F)C(=O)Nc1cc(C(C)(C)OCCO)no1 | 109 | > 50 | – | – | –
CC(C)(NCCCC(F)(F)F)C(=O)Nc1cc(C2(CO)CCC2)no1 | – | – | 54 | > 50 | –
CC(C)(NCC1CCOCC1)C(=O)Nc1cc(C(C)(C)COC2CCCCO2)no1 (centres unmarked) | 201 | > 50 | – | – | –
CC(C)(NCC1CCOCC1)C(=O)Nc1cc(C(C)(C)CO)no1 | 374 | > 50 | – | – | –
CC(C)(NCCCC(F)(F)F)C(=O)Nc1cc(C(C)(C)CO)no1 | – | – | 31 | > 50 | –

Structure (SMILES) | EC50 (human CB2R; [1]) [nM] | EC50 (human CB1R; [2]) [µM] | EC50 (human CB2R) [nM] | EC50 (human CB1R) [µM] | also measured
CN(C(=O)CC1CCOCC1)C(C)(C)C(=O)Nc1cc(C(C)(C)CO)no1 | – | – | 27 | > 50 | –
CC(C)(NCCC1CCOCC1)C(=O)Nc1cc(C(C)(C)CO)no1 | 113 | > 50 | – | – | –
CC(C)(CO)c1cc(NC(=O)C(C)(C)N2CC[C@@H](O)C2)on1 | 494 | > 50 | – | – | –
CC[C@H](C)N(C)C(C)(C)C(=O)Nc1cc(C(C)(C)CO)no1 | 220 | > 50 | – | – | –
CN(CC1CC1)C(C)(C)C(=O)Nc1cc(C(C)(C)CO)no1 | – | – | 12 | 36 | –
CC(C)(N[C@H]1CC[C@@H](O)CC1)C(=O)Nc1cc(C(C)(C)CO)no1 | 300 | > 50 | – | – | –
CC(C)(N[C@H]1CC[C@@H](NS(C)(=O)=O)CC1)C(=O)Nc1cc(C(C)(C)CO)no1 | – | – | 42 | > 50 | –
CC(C)(CO)c1cc(NC(=O)C(C)(C)N2CCC(NS(C)(=O)=O)CC2)on1 | – | – | 7.1 | > 50 | –
CN(C[C@H]1CCCN(S(C)(=O)=O)C1)C(C)(C)C(=O)Nc1cc(C(C)(C)CO)no1 | 126 | > 50 | – | – | –
CN(CC1CCOC1)C(C)(C)C(=O)Nc1cc(C(C)(C)CO)no1 (centres unmarked) | – | – | 29 | > 50 | –
CN(C(=O)C[C@H]1CCOC1)C(C)(C)C(=O)Nc1cc(C(C)(C)CO)no1 | – | – | 25 | > 50 | –
CN(C1CC1)C(C)(C)C(=O)Nc1cc(C(C)(C)CO)no1 | – | – | 446 | – | –
CN(C1CCOCC1)C(C)(C)C(=O)Nc1cc(C(C)(C)COCCO)no1 | – | – | 15 | 37.6 | –
Cc1ncc(C(C)(C)c2cc(NC(=O)C(C)(C)NC3CCN(S(C)(=O)=O)CC3)on2)s1 | 195 | > 50 | – | – | –
CN(C(=O)CCC(F)(F)F)C(C)(C)C(=O)Nc1cc(C(C)(C)CO)no1 | – | – | 69 | > 50 | –
CN([C@@H]1CCN(S(C)(=O)=O)C1)C(C)(C)C(=O)Nc1cc(C(C)(C)CO)no1 | – | – | 1.7 | > 20 | –
CN([C@H]1CCN(S(C)(=O)=O)C1)C(C)(C)C(=O)Nc1cc(C(C)(C)CO)no1 | – | – | 28 | > 50 | –
CN(C[C@H]1COCCO1)C(C)(C)C(=O)Nc1cc(C(C)(C)CO)no1 | – | – | 68 | > 50 | –
CN(C[C@@H]1COCCO1)C(C)(C)C(=O)Nc1cc(C(C)(C)CO)no1 | – | – | 40 | > 50 | –
CN(C(=O)CCCC(F)(F)F)C(C)(C)C(=O)Nc1cc(C(C)(C)CO)no1 | – | – | 27 | 32.1 | –
CC(C)(NC1CCC(NS(C)(=O)=O)CC1)C(=O)Nc1nnn(C(C)(C)C)n1 (centres unmarked) | – | – | – | – | EC50 (human CB2R; read-out: CB2 EC50, CHO cells expressing human CB2R, inhibition of forskolin-stimulated cAMP synthesis): 33 nM; EC50 (human CB1R; read-out: CB1 EC50, CHO cells expressing human CB1R, inhibition of forskolin-stimulated cAMP synthesis): > 50 µM
